The text below walks through data of patent US4794103A, “Pharmaceutical compositions containing peptides of the cholecystokinin-cerulein group for the therapy of shock conditions and of respiratory and cardiocirculatory insufficiencies” (priority 1986, dated 1988).

In the experiment the test system is female Wistar rats. In words: Hypovolemic shock produced by bleeding in anesthetized rats, intravenous bolus of the polypeptides. Format: in vivo, rat. The settings on record: for MEAN ARTERIAL PRESSURE 15-30 min. After bleeding: mean ± S.E. The method, then: Intact and adrenalectomized female Wistar rats (Nossan, Correzzano, Milano, Italy) weighing 250 to 300 g were used. Following anesthetization and heparinization a common carotid artery and an iliac vein were cannulated in rats. Arterial blood pressure was recorded by means of a pressure transducer (Statham P23 Db) connected to a polygraph (Battaglia-Rangoni, Bologna, Italy). […] Hypovolemic shock was produced by intermittently withdrawing blood from the venous catheter until mean arterial pressure fell to 10-25 mm Hg. […] Following bleeding and mean blood pressure stabilization in the range of 10-25 mm Hg, animals were given intravenous bolus of the polypeptides. Control animals were intravenously injected with the same volume of saline (0.1 ml/100 g).

Take CCK8: the “No. of deaths 120 min. after treatment” value is, setting by setting: (5 μg/kg i.v. after bleeding, 6 rats used (saline: 12 of 12 died)) 2; (10 μg/kg i.v. after bleeding, 5 rats used (saline: 12 of 12 died)) 0; (20 μg/kg i.v. after bleeding, 5 rats used (saline: 12 of 12 died)) 0. Further, the “MEAN ARTERIAL PRESSURE 15-30 min. After bleeding” value by setting is: (5 μg/kg i.v. after bleeding, 6 rats, before bleeding 71.17 ± 6.07, after bleeding 11.83 ± 0.79, P < 0.05 versus value after bleeding) 26.33 ± 7.05 mm Hg; (10 μg/kg i.v. after bleeding, 5 rats, before bleeding 68.40 ± 4.98, after bleeding 14.00 ± 1.82, P < 0.01 versus value after bleeding) 41.80 ± 3.79 mm Hg; (20 μg/kg i.v. after bleeding, 5 rats, before bleeding 72.00 ± 4.67, after bleeding 14.40 ± 0.87, P < 0.01 versus value after bleeding) 52.40 ± 2.73 mm Hg.

On to cerulein, for which, for the setting “20 μg/kg i.v. after bleeding, 6 rats used (saline: 12 of 12 died)”, the “No. of deaths 120 min. after treatment” value was 0. Further, the “MEAN ARTERIAL PRESSURE 15-30 min. After bleeding” value (20 μg/kg i.v. after bleeding, 6 rats, before bleeding 75.17 ± 6.62, after bleeding 12.17 ± 1.11, P < 0.01 versus value after bleeding) is listed as 54.67 ± 4.29 mm Hg.
